Laboratory results published in US20160176919A1, “CELL SPECIFIC LABELING OF NEWLY SYNTHESIZED PROTEINS” (OREGON HEALTH & SCIENCE UNIVERSITY, priority 2014, published 2016).
Blank lines part the entries; values can stand above or below the compound they belong to.

Experiments:
Hela cells = experiment: Identifying the nascent proteome in Hela cells using OP-puro (click chemistry with biotin azide, NeutrAvidin affinity purification, Western blot/silver stain, MS/MS); assay type: cell-based, human
Method: FIG. 3 is a set of two images of gels that show selective enrichment of newly synthesized proteins in Hela cells treated with OP-puro relative to those treated with puromycin. Hela cells were treated with either 50 μM OP-puro or puro (as indicated) for one hour. Cells were then harvested in PBS+1% SDS (sodium dodecyl sulfate) and lysed. Lysates were diluted in 0.1% SDS and incubated with biotin azide using a click reaction for one hour. Biotinylated proteins were affinity purified using NeutrAvidin agarose beads. Eluted proteins were resolved using a 4-12% gradient SDS-PAGE gel and detected by either Western blot with streptavidin-HRP (left gel) or by silver stain (right gel). The lanes reflect input (I), supernatant (S), or pull-down (P) as indicated.
OP-puro can identify newly synthesized proteins in a defined timeframe in mammalian cells grown in culture. Newly synthesized proteins were identified in Hela cells using OP-puro, followed by click chemistry, affinity purification, and MS/MS analysis. OP-puro was synthesized according to Liu et al, 2012 supra.
To prepare samples for MS/MS analysis, the captured biotinylated proteins from the OP-puro and puro (used as a background control) treated cells were alkylated and digested on the agarose beads using trypsin. The peptides were analyzed using a capillary HPLC system coupled online with an LTQ orbitrap mass spectrometer. […] These peptides identified 530 different human proteins, which represents ˜5% of the total Hela proteome (Nagaraj et al 2011 supra).

[1] = Stability of PhAc-OP-puro in mouse plasma by LCMS; assay type: in vitro ADME; conditions: in vitro, for up to 40 min
Method: FIG. 6 is a plot of the results of incubating PhAc-OP-puro in mouse plasma for the indicated period of time. Stability of PhAc-OP-puro was monitored by liquid chromatography mass spectrometry.
As shown above, PhAc-OP-puro is stable in cell culture and is not converted to OP-puro in wild type cells. To use PhAc-OP-puro in an animal system such as mice, the in vitro stability of PhAc-OP-puro in plasma should be determined. Plasma typically contains high esterase activity that could result in cleavage of the carbamate linkage in PhAc-OP-puro. Cleavage of PhAc-OP-puro at the carbamate linkage would generate OP-puro, and therefore would not allow use of the disclosed method in intact mice. While there are several examples of drugs containing carbamates (Chaturvedi D, Tetrahedron 68, 15 (2012); incorporated by reference herein), it is unpredictable whether or not a particular carbamate is resistant to esterases in plasma.
The potential esterase-dependent metabolism of PhAc-OP-puro in mouse plasma was assessed by liquid chromatography mass spectrometry (LCMS). PhAc-OP-puro was determined to be stable in mouse plasma for up to 40 min (FIG. 6).

[2] = system: HEK293T cells transfected with PGA-IRES-GFP or control plasmid; experiment: Deblocking of PhAc-OP-puro by PGA in HEK 293T cells transfected with PGA-IRES-GFP or control plasmid (biotin azide click, Streptavidin-HRP dot blot/Western blot); assay type: cell-based, human
Method: FIG. 4A is a dot blot and a bar graph showing HEK293T cells transfected with either a PGA IRES GFP or a control plasmid (as indicated) using calcium phosphate transfection. Twenty-four hours after transfection, cells were treated with 5 or 50 μM of DMSO (negative control), OP-puro, or PhAc-OP-puro as indicated for 30 minutes. Cells were harvested in PBS+1% SDS. Lysates were diluted 10× and incubated with biotin azide under click reaction conditions for one hour. Lysates were spotted onto nitrocellulose and biotinylated proteins detected with Streptavidin-HRP (top panel). Dot intensity was quantified using Image) and graphed (bottom panel).
FIG. 4B is a set of two images of gels showing proteins from three of the samples described in FIG. 4A resolved by 4-12% gradient SDS-PAGE and detected by Western blot with Streptavidin-HRP (left panel) or Ponceau S staining (right panel) Bands marked with an asterisk are endogenous cellular biotinylated proteins.
In E. coli, PGA is expressed as a precursor protein containing a signal sequence that targets it to the bacterial periplasm, where it is processed and activated (Kasche et al, Biochem Biophys Acta 1433, 76 (1999); incorporated by reference herein). Previous studies, however, have shown that by removing the signal sequence, PGA can be expressed in the cytoplasm of the methylotrophic yeast, Pichia pastoris (Maresova H et al, BMC Biotechnol 10, 7 (2010); incorporated by reference herein). Importantly, this cytoplasmic variant of PGA was as active as wild type (WT) PGA expressed in bacteria (Maresova H et al, 2010 supra). However, to date, no one had shown whether or not PGA could be expressed in mammalian cells or any cells derived from a multicellular organism. A construct (PGA-IRES-GFP) was the designed, the construct comprising a variant of PGA lacking the signal sequence described above, and an IRES-GFP for co-cistronic expression of GFP to identify transfected cells.
The incorporation of OP-puro into newly synthesized proteins was detected using click chemistry with biotin azide. […] (FIG. 4A).

[3] = system: HEK 293T cells transfected with PGA-IRES-GFP; experiment: Cell-specific labeling of newly synthesized proteins in single HEK 293T cells (click chemistry with Alexa Fluor-568 azide, fluorescence microscopy); assay type: cell-based, human; conditions: 5 μM, 30 min
Method: FIG. 5A is a set of 12 images of HEK 293T cells transfected with PGA-IRES-GFP or controls as indicated using calcium phosphate transfection. In two of the conditions, PGA-IRES-GFP transfected cells were mixed with nontransfected cells such that the total population of transfected cells was 5%. At a timepoint 24 hours post transfection, cells were treated with either a DMSO control or 5 μM PhAc-OP-puro for 30 minutes as indicated. Cells were then fixed with methanol and nascent protein synthesis detected by click chemistry with Alexa Fluor-568 azide. After click chemistry, cells were labeled with an antibody specific for GFP. Total cells were detected by DAPI.
In cells treated with PhAc-OP-puro (5 μM, 30 min), labeling of newly synthesized proteins (OP-puro-tagged peptides) is detected in PGA-expressing cells (identified by GFP) (FIG. 5A). The amount of labeling appeared to correlate with the expression levels of PGA as determined by comparing the fluorescence intensity of the OP-puro tagged peptides to the fluorescence intensity of GFP.

[4] = OP-puro treated Hela cells, puro as background control

SMILES: COc1ccc(C[C@H](N)C(=O)N[C@H]2[C@@H](O)[C@H](n3cnc4c(N(C)C)ncnc43)O[C@@H]2CO)cc1 [puro, puromycin]
silver stain of NeutrAvidin eluates (Hela cells; Hela cells, 50 μM, one hour): no detectable staining

SMILES: C#CCOc1ccc(C[C@H](N)C(=O)N[C@H]2[C@@H](O)[C@H](n3cnc4c(N(C)C)ncnc43)O[C@@H]2CO)cc1 [OP-puro, O-propargyl puromycin]
biotinylated proteins in NeutrAvidin eluates (Western blot with streptavidin-HRP) (Hela cells; Hela cells, 50 μM, one hour): presence of biotinylated proteins | fraction of the total Hela proteome represented by identified proteins (Hela cells; OP-puro treated Hela cells): ~5% | different human proteins identified (Hela cells; [4]): 530 | peptides with unique amino acid sequences identified by MS/MS (Hela cells; [4]): 1,600

stability in mouse plasma [1]: stable | induction of the unfolded protein response ([2]; PGA-IRES-GFP transfected HEK 293T cells, 5 μM, 30 min): no observed induction
SMILES: C#CCOc1ccc(C[C@H](NC(=O)OCc2ccc(NC(=O)Cc3ccccc3)cc2)C(=O)NC2C(CO)OC(n3cnc4c(N(C)C)ncnc43)C2O)cc1 (stereo partly shown) [PhAc-OP-puro]
incorporation into newly synthesized proteins (biotin signal) ([2]; HEK 293T cells transfected with PGA-IRES-GFP, 5 μM, 30 min): prominent biotin signal | time for complete conversion to OP-puro ([2]; PGA-IRES-GFP transfected HEK 293T cells, 5 μM): ≤ 30 min | signal intensity relative to OP-puro control ([2]; PGA-IRES-GFP transfected HEK 293T cells, 5 μM, 30 min, versus control transfected cells with OP-puro 5 μM): the same as that of control transfected cells treated with OP-puro | activity (labeling of proteins) in the absence of PGA ([2]; control transfected HEK 293T cells, up to 50 μM): completely inert | labeling of newly synthesized proteins (OP-puro-tagged peptides) in PGA-expressing cells ([3]; PGA-expressing cells identified by GFP): detected | labeling of newly synthesized proteins in cells not expressing PGA ([3]; cells not expressing PGA): No labeling was detected
